| SMILES | melting point [°C] |
| --- | --- |
| COc1ccc2[nH]c3cc(-c4cc([N+](=O)[O-])ccc4OC)c4c(c3c2c1)C(=O)NC4=O | 302 to 304 |
| CC(C)Cn1c(CCCCNC(=O)Nc2ccccc2)nc2c(N)nc3ccccc3c21 | 113 to 115 |
| Cc1c(Cl)cc(C(=O)O)c(Cl)c1[N+](=O)[O-] | 210 to 218 |
| CCOC(=O)C(Cc1ccccc1CCCBr)(NC(C)=O)C(=O)OCC | 73 to 74.5 |
| Cc1c(C)c2c(c(C)c1N)CC(C)(CN1CCN(C(=O)C(c3ccccc3)c3ccccc3)CC1)O2 (stereo not given) | 113 to 115 |
| COC1=C(N=O)C(=O)NC1=Cc1ccccc1 | 172 |
| C[Si](C)(C)CC(O)(Cn1nc[nH]c1=S)c1ccc(F)cc1 (stereo not given) | 107 |
| O=C(O)c1cc(-c2ccc(OCc3ccccc3)cc2OCc2ccccc2)n[nH]1 | 218 to 219 |
| CCOC(=O)CCc1cc(CCC(=O)O)cc(Cc2cccnc2)c1 | 62 to 64 |
| CN(C)CCOc1cc(CCCOc2nn(Cc3ccccc3)cc2CC(=O)O)n(Cc2ccc(Cl)cc2Cl)n1 | 78.3 to 80.8 |
| NN1CCN(C2c3ccccc3C=C(Br)c3ccccc32)CC1 (stereo not given) | 188 to 190 |
| COc1cc2c3c(c1)nc(-c1ccccc1)n3CCC2=NO | 235 to 238 |
| O=C(NC(Cc1ccccc1)C(=O)O)OCc1cc2cc(-c3cncnc3)ccc2o1 (stereo not given) | 192 |
| Cn1c([N+](=O)[O-])cnc1-c1cc(CCC(=O)O)on1 | 114 |
| C#Cc1cccc(Nc2ncnc3[nH]cc(-c4ccc(Cl)cc4)c23)c1 | 225 to 227 |
| CN(C)Cc1ccc(C(=O)Nc2nc(-c3ccco3)c(C(=O)C3CCOCC3)s2)cc1 | 109 to 112 |
| NS(=O)(=O)c1ccc(-n2nc(C(F)(F)F)cc2-c2nc3ccc(Cl)cc3s2)cc1 | 254 to 255 |
| CC(C)(C)OC(=O)NC(CNC(=O)c1ccccc1)C(=O)O (stereo not given) | 110 to 111 |
| CSC(Oc1ccc2ncc(I)cc2c1)C(=O)NC(C)(C)C (stereo not given) | 165 to 166 |
| COc1ccc(Cc2cnc(N)nc2N)cc1OCc1ccccc1 | 210 to 212 |
| Cc1ccc(NC(=N)c2ccncc2)cc1 | 120 to 123 |
| COc1ccc(C(=O)COC(C)=O)cc1OC | 82 to 84 |
| CC(C)(NC(=O)C1=C(C(=O)Nc2cc(OC3CCCC3)c(Cl)cc2F)CCCC1)c1cccc(F)c1 | 231 to 234 |
| CC(=O)OCC1OC(OC2C(COC(C)=O)OC(Oc3ccc(N)cc3)C(OC(C)=O)C2OC(C)=O)C(OC(C)=O)C(OC(C)=O)C1OC(C)=O (stereo not given) | 174 to 176 |
| O=C(NCCCCN1CCC(c2ccc3c(c2O)CCCC3)CC1)c1ccc(-c2ccc(C(F)(F)F)cc2)cc1 | 220 to 222 |

| SMILES | melting point [°C] |
| --- | --- |
| COC(=O)c1ccc2oc(CCCCCc3cc4cc(C(=O)OC)ccc4o3)cc2c1 | 83 to 85 |
| Cc1ccc([N+](=O)[O-])cc1/C=C/c1nc(C(C)C)cs1 | 87 to 88 |
| Nc1nc2c(ncn2C2CCC(CO)O2)c(=O)[nH]1 (stereo not given) | > 250 |
| Cc1cccc(C(=O)NC(CC(C)C)C(=O)O)c1SSc1c(C)cccc1C(=O)NC(CC(C)C)C(=O)O (stereo not given) | 210 to 211 |
| COc1cc(CNC(=O)c2nc3cn(CCCc4ccccc4)nc3c(=O)[nH]2)ccc1F | 137 to 140 |
| NC(=S)Nc1ccc2ccccc2n1 | 179 to 180 |
| C=CCNc1nc(C)ccc1C(=O)OC | 140 to 142 |
| COc1cc(OC)nc(Oc2cccc(Cl)c2C(=O)NS(=O)(=O)C(C)C)n1 | 150 to 152 |
| COc1cc(OCCCN2CCOCC2)c(C=CC(=O)c2ccc(C(N)=O)cc2)cc1-c1cccs1 | 81 to 83 |
| CN(CCNC(=O)c1ccccc1)C(=O)c1ccccc1 | 121 |
| O=C(OC(Cn1ccnc1)CS(=O)(=O)c1ccccc1)c1ccc(Cl)cc1Cl (stereo not given) | 106 to 109 |
| O=C(NC1CCCCC1)NC1CCN(CCc2c[nH]c3ccccc23)CC1 | 204 |
| CCCCN(C)Cc1[nH]c2ccccc2c1CC1C(=O)N(c2ccccc2)N=C1C (stereo not given) | 180 to 200 |
| CN1CCN(C(=O)Nc2ccc3c(c2Cl)C(c2ccccc2F)=NCC(=O)N3C)CC1 | 154 |
| N#CC1=C(C2CCNCC2)Nc2n[nH]cc2C1c1cccc2nonc12 (stereo not given) | 216 |
| O=C(C(=O)c1ccc(C(F)(F)F)cc1)c1ccncc1 | 70 to 72 |
| Cc1cc(-c2cccc(-c3ccc(C4(O)C5CCC4CN(Cc4ccccc4)C5)cc3)n2)c(C)[nH]1 (stereo not given) | 58 to 68 |
| CN(C)C=C(C=C(C#N)C(=O)OC(C)(C)C)c1cccnc1 | 161 to 163 |
| CC(C)(C)c1cc(I)c(O)c(CNC(=O)C(F)(F)F)c1 | 118 to 119 |
| CSC(=C[N+](=O)[O-])NCCSCc1ccsn1 | 64.5 to 65.5 |
| COc1ccccc1N1CCN(CCCNC(=O)NC23CC4CC(CC(C4)C2)C3)CC1 | 181 to 182 |
| C=C1c2ccccc2-c2ccccc21 | 46 to 48 |
| Cc1nsc(Cl)c1CS(=O)(=O)C1=NOC(C)(C)C1 | 113 to 114 |
| CC(C)(C)OC(=O)NC1CCN(c2nc3c(cc2F)c(=O)n(N)c(=O)n3C2CC2)C1 (stereo not given) | 108 to 110 |
| Cc1cc(C)n2nc(SCc3ccccc3)nc2c1 | 69 to 70 |

| SMILES | melting point [°C] |
| --- | --- |
| O=C(c1ccc(C2CCCCC2)cc1)N1Cc2cccn2Cc2ncccc21 | 150 to 152 |
| CCNC(=O)c1ccc(-c2ccc(-c3ccccc3)c(-c3ccc4c(c3)C(C)(C)CCC4(C)C)c2)cc1 | 183 |
| CCc1nc(C)n(COCc2ccccc2)c1Sc1ccccc1 | 156 to 159 |
| Cc1ccc2c(c1)c1cc(-c3ccc(OCC#N)cc3)c(=O)n(C)c1n2C | 195 to 196 |
| CC1=C(C(=O)OCC(C)C)C(c2cccc([N+](=O)[O-])c2)c2c(nc(N3CCOCC3)nc2N2CCOCC2)N1 (stereo not given) | 214 |
| Nc1cccc(C=Cc2ccc(O)cc2)n1 | 224 to 225 |
| CCOC(=O)c1c(OCC)nsc1NC(=O)NC | 195 to 196 |
| Cc1nc2scc(C)n2c(=O)c1CCN1CCC(=C(c2ccc(F)cc2)c2ccc(F)cc2)CC1 | 184 |
| CC12CCC(O)CC1CCC1C2CCC2(C)C(OCCO)CCC12 (stereo not given) | 181 to 183 |
| CCN(C#N)C(=O)C(C)Oc1ccc(Oc2cnc3cc(F)ccc3n2)cc1 (stereo not given) | 108 to 111 |
| O=c1cnc(-c2ccccc2)nn1CC(F)(F)F | 129 to 131 |
| CCOC(=O)C(C)(Sc1nc2ccc(OCC)cc2s1)c1ccccc1 (stereo not given) | 92 to 94 |
| Cc1cccc(NC(=O)c2ccc3nc(NC4CCN(C)CC4)n(Cc4nc(C)ccc4O)c3c2)c1 | 172 |
| C=C1N(C)C(=O)OC12CCN(C(=O)NCCCC)CC2 | 129 to 130 |
| Cc1ccc(-c2ccc(C(=O)Nc3ccc4cc(CN5CCCC5)cnc4c3C)cc2)s1 | 220 to 221 |
| CN1C(=O)CCC2(C)C1=CCC1C2CCC2(C)C(O)CCC12 (stereo not given) | 181 to 183 |
| O=C1c2ccccc2C(=O)N1CCc1cc(Br)cs1 | 115 to 117 |
| COC(=O)C=Cc1ccc(-c2ccccc2)cc1 | 144 to 147 |
| CCC(C(C)C)C(OC(C)=O)C(OC(C)=O)C(C)C1CCC2C3CC(=O)C4CC=CCC4(C)C3CCC12C (stereo not given) | 116 to 118 |
| COC1C(OC(=O)NC(=O)CCl)CCC(O)(CSC)C1C1(C)OC1CC=C(C)C (stereo not given) | 101 to 102 |
| N#CC(Cl)Cc1ccccc1C(=O)O (stereo not given) | 116 to 117 |
| Clc1ccc2c(C3CCNCC3)n[nH]c2c1 | 174 to 176 |
| CSc1nccc(Oc2ccc(NC(=O)c3cc(F)cc(N4CCCCC4)c3)c3ccccc23)n1 | 130 to 132 |
| CCCc1c(OCCCOc2ccc([N+](=O)[O-])cc2)ccc(C(C)=O)c1O | 98 |
| N#CCc1ccc(NC(=O)C(F)(F)C(F)(F)C(F)(F)C(F)(F)F)cc1 | 126 to 128 |

| SMILES | melting point [°C] |
| --- | --- |
| Cc1cc(-c2c(F)cc3c(=O)c(C(=O)O)cn(C4CC4)c3c2F)cc(C)n1 | 246 to 248 |
| O=C1NC(=O)c2c(F)cccc21 | 176 to 179 |
| N#Cc1cccc(-c2nnc(-c3cccnc3)o2)c1 | 170 to 174 |
| O=C(NCc1ccc(Cl)cc1)c1cnc2cc(Cl)ccc2c1O | 237 to 239 |
| O=C1C(CCC(O)c2ccc(F)cc2)C(c2ccc(-c3cccc(O)c3)cc2)N1c1ccc(F)cc1 (stereo not given) | 107 |
| CC1CCCC(C)N1Cc1ccc2cc(NC(=O)C3(Cl)C=CC(c4ccccc4Cl)=CC3)ccc2n1 (stereo not given) | 162 to 164 |
| CCOC(=O)CSc1cc(Cl)nc(Nc2cccc(C)c2C)n1 | 114 to 116 |
| CC1(C)OC(=O)Nc2cc(-c3cccc(Cl)c3)sc21 | 123 to 125 |
| Cc1cc(C)cc(S(=O)c2c(C(C)C)nc(C)n2C)c1 (stereo not given) | 100 to 101 |
| Cn1ccnc1N=Cc1ccccc1 | 71 to 72 |
| Oc1ccc2c(c1)C(Cc1c[nH]cn1)CC2 (stereo not given) | 206 to 208 |
| CC(C)(Oc1ccc([Si](C)(C)C)cc1)C(=O)O | 92 to 93 |
| O=C(O)c1cc(-c2ccc(OCc3ccccc3)cc2)c(=O)n2ccc3ccsc3c12 | 197 to 199 |
| COC(=O)C(Cc1ccccc1)NC(=O)C(N)(CC(=O)O)C(=O)N1CCCCC1 (stereo not given) | 225 to 227 |
| CNc1cc(F)c(C=O)cc1F | 133 to 138 |
| CN(C)C=C(C#N)C(=O)Nc1ccccc1 | 162 to 164 |
| CC(=O)c1[nH]c(C)nc1C | 83 to 87 |
| OCc1ccc(-c2ccccc2)cc1Cl | 69 to 70 |
| O=C1NCCc2c(-c3ccc4ccccc4c3)[nH]c3cccc1c23 | 261 to 262 |
| CC(C)n1nc(-c2cc(C(=O)NCCN3CCOCC3)cnc2-c2ccccc2)ccc1=O | 162 to 163 |
| CC(C)(C)OC(=O)NCc1ccc(CC(=O)O)cc1 | 89 to 91 |
| CCCCN(C1=C(O)C[C@@](CCc2cccc(O)c2)(C2CCCC2)OC1=O)c1ccccc1 | 64 to 66 |
| Cc1ccccc1-c1ccc(C(=O)N2Cc3ccc(C(=O)NCCc4ccc(O)cc4)n3Cc3ccccc32)cc1C | 129 to 131 |
| CC1(Oc2ccc(N)cc2)C2CC3CC(C2)CC1C3 (stereo not given) | 95.6 to 97.9 |
| COc1c(C(C)=O)c(OC2SCC(O)C(O)C2O)c(OC)c2occc12 (stereo not given) | 207 to 209 |

Source: a melting point compilation (Tetko et al.; mined from patent text by program, amines drawn as free bases though some values may be those of a salt)
